# Experimental data from US20080096853A1, “Edible Compositions Comprising A Primary Lipid, A Co-Lipid, A Lipohilic Physiologically Active Ingredient And Water, And Their Preparation” (priority 2004, published 2008).
# Experiments:
# Assay type in all cases: physicochemical
# [1] = USP24 dissolution test type II: solubility of β-carotene in bile extract solution; conditions: 900 ml bile extract solution in aqueous buffer, 37° C., stirring in USP24 for 60 min
# Experimental: 6 mg of β-carotene and 2 g of lactic fatty acid ester+glycerol/propylene glycol reaction product (LFEGPG) were dissolved at 55° C. in 10 ml of ethanol. This solution was added dropwise to 200 ml of intensely agitated Tris buffer ([…]). After 15 minutes of stirring, the solution was cooled down and the pH adjusted to 4.0 with 1M HCl. The precipitate was then filtrated and LFEGPG lipid phase containing molecularly-dispersed β-carotene was used further in this experiment.
# The precipitate was added to the USP24 vessel (dissolution test type II) loaded with 900 ml of bile extract solution in aqueous buffer at 37° C. As a control, 6 mg of free crystalline β-carotene was added to the same buffered bile solution in USP24.
# [2] = Incorporation of β-carotene into LFEGPG in model systems (UV-Vis after centrifugation and hexane extraction)
# Experimental: • (1) A. 1 g LFEGPG and 2.4 mg pure β-carotene were added to 100 ml water, followed by magnet stirring for 1 h at 50° C. 1.7 mg β-carotene/g dry LFEGPG were detected by UV-Vis spectrophotometry after centrifugation and extraction of β-carotene from the collected lipid phase by hexane. • B. 1 g LFEGPG and 2.4 mg pure β-carotene were melted together and added dropwise to 100 ml water, followed by magnet stirring for 20 min at 50° C. Ultra Turrax was applied to homogenize the sample, then the sample was magnet stirred for another 10 min at 50° C. […] Polymorphic or mesomorphic lipid phases containing molecularly dispersed β-carotene were derived (judged from appearance under microscope, however also a few free β-carotene crystals were detected, thus not completely molecularly dispersed). • (4) As the solubility of β-carotene in ethanol is limited, complete molecular dispersion of β-carotene was achieved by the use of non food-grade solvents such as chloroform. […] The lipid phase was investigated under the optical light microscope, and no β-carotene crystals could be detected. • (5) 0.2 g of LFEGPG and 2 mg β-carotene as well as 0.2 g a LFEGPG/Datem (diacetyl tartaric acid esters of mono- and diglycerides) mixture (93/7, by wt) and 2 mg β-carotene were dissolved in chloroform. […]
# [3] = In situ incorporation of carotenoids from carrot juice into LFEGPG (absorbance at 448 nm); conditions: Silverson
# Experimental: • 1) 1 g solid LFEGPG was added to 100 ml cold carrot juice (97% pure fresh carrot juice, Zonnatura B.V Zoetermeer, Netherlands). The mixture was warmed up to 50° C. and kept at this temperature for 30 min with magnetic stirring. Homogenization was performed with a Silverson homogenizer at ˜5500 rpm followed by another hydration step for 5 min at 50° C. • The LFEGPG phase was filtrated, collected and dissolved in hexane. The β-carotene content was determined spectrophotometrically (absorbance at 448 nm) to be 0.68 mg β-carotene/g dry lipid phase (corrected for a water content of the hydrated LFEGPG phase of 30%). • (2) 2 g LFEGPG were melted at 50° C. and added dropwise to 100 ml carrot juice kept at 50° C. Magnet stirring was performed for 1 hour at 50° C., then the solution was homogenized with a Silverson homogenizer (4500 rpm for 1 minute) and magnet stirred at 50° C. for another 1 hour. The LFEGPG phase was collected by filtration and dissolved in hexane. The β-carotene content was spectrophotometrically determined (absorbance at 448 nm) to be 1.5 mg β-carotene/g dry LFEGPG. […] Magnet stirring was performed for 20 min at 50° C., Silverson (4500 rpm, 1 min.), and magnet stirred at 50° C. for another 10 min at 50° C. The LFEGPG phase was collected by filtration and dissolved in hexane. The β-carotene content was spectrophotometrically determined (absorbance at 448 nm) to be 2.0 mg β-carotene/g dry LFEGPG.
smiles,measurement,setting,value
CC1=C(/C=C/C(C)=C/C=C/C(C)=C/C=C/C=C(C)/C=C/C=C(C)/C=C/C2=C(C)CCCC2(C)C)C(C)(C)CCC1 [β-carotene],"solubility of β-carotene in the bile solution, from the initial amount (6 mg)",[1],~0%
same,β-carotene detected in collected lipid phase,"[2]; Example 6 (1) A: 1 g LFEGPG and 2.4 mg β-carotene added to 100 ml water, stirred 1 h at 50° C.",1.7 mg β-carotene/g dry LFEGPG
same,β-carotene recovered,"[2]; Example 6 (1) B: 1 g LFEGPG and 2.4 mg β-carotene melted together, added dropwise to 100 ml water, Ultra Turrax",2.2 mg
same,β-carotene content of LFEGPG phase,"[3]; Example 7 (1): 1 g solid LFEGPG in 100 ml cold carrot juice, 50° C. 30 min, corrected for 30% water content",0.68 mg β-carotene/g dry lipid phase
same,β-carotene content of LFEGPG phase,"[3]; Example 7 (2): 2 g molten LFEGPG in 100 ml carrot juice, 1 hour stirring, another 1 hour, 50° C.",1.5 mg β-carotene/g dry LFEGPG
same,β-carotene content of LFEGPG phase,"[3]; Example 7 (3): 1 g molten LFEGPG in 100 ml carrot juice, 20 min stirring, another 10 min, 50° C.",2.0 mg β-carotene/g dry LFEGPG
